Measurements as given in publication PMC12624743 (ACS Infectious Diseases, 2025).
Converted amounts (≈) assume the structure as drawn.

How the values were obtained:
[1] = system: N. gonorrhoeae FA1090-Q1 (GyrA^S91F/D95G, ParC WT); experiment: MIC by agar dilution, fluoroquinolone-resistant GyrA^S91F/D95G strain; assay type: cell-based; conditions: Neisseria gonorrhoeae
Procedure: Minimum inhibitory concentration (MIC) of test compounds was determined by an agar dilution method, the reference testing method for N. gonorrhoeae according to the standards of the Clinical and Laboratory Standards Institute and the CDC.

[2] = system: N. gonorrhoeae FA1090 (ATCC 700825); experiment: MIC by agar dilution, parental strain FA1090; assay type: cell-based; conditions: Neisseria gonorrhoeae, ATCC700825, parental strain FA1090, GyrA WT / ParC WT
Procedure: A series of isogenic N. gonorrhoeae strains was constructed that carried the specific target mutations GyrA^A92T or GyrA^D90N either alone or in combination with ParC^D86N or GyrA^S91F/D95G in a ciprofloxacin-susceptible strain, FA1090 (ATCC 700825).
All N. gonorrhoeae isolates were cultured and grown on GC agar plates or in fastidious broth (Remel, 07664). Minimum inhibitory concentration (MIC) of test compounds was determined by an agar dilution method, the reference testing method for N. gonorrhoeae according to the standards of the Clinical and Laboratory Standards Institute and the CDC. MIC values were determined after incubation at 37 °C for 48 h in 5% CO2.

## O=C(O)c1cn(C2CC2)c2cc(N3CCNCC3)c(F)cc2c1=O [ciprofloxacin]
[1]
  MIC: 0.25 µg/mL (≈ 0.754 µM)
[2]
  MIC: 0.004 µg/mL
